According to BindingDB's records for doi:10.1016/j.ejmech.2019.111574 (Chungnam National University, 2019):

Assay: Inhibition of IL-5 receptor in mouse pro-B Y16 cells assessed as decrease in mIL-5 dependent cell proliferation after 48 hrs in presence of 3 units/ml mIL-5 by WST-1 assay

Structure (SMILES) | IC50
OCCCNCc1nc2c(OCC3CCCCC3)cccc2[nH]1 | 28.5 µM
CCN(CCO)Cc1nc2c(OCC3CCCCC3)cccc2[nH]1 | > 30 µM
c1ccc(CNCc2nc3c(OCC4CCCCC4)cccc3[nH]2)cc1 | > 30 µM
OCCNCc1nc2c(OCC3CCCCC3)cccc2[nH]1 | 20 µM
CCC(CO)NCc1nc2c(OCC3CCCCC3)cccc2[nH]1 (configuration not stated) | 3.5 µM
CCCC(CO)NCc1nc2c(OCC3CCCCC3)cccc2[nH]1 (configuration not stated) | 7.5 µM
CC(C)(CO)NCc1nc2c(OCC3CCCCC3)cccc2[nH]1 | 27.5 µM
OCC(Cc1ccccc1)NCc1nc2c(OCC3CCCCC3)cccc2[nH]1 (configuration not stated) | 12 µM
CCCN(CCO)Cc1nc2c(OCC3CCCCC3)cccc2[nH]1 | 20 µM
CC(C)N(CCO)Cc1nc2c(OCC3CCCCC3)cccc2[nH]1 | > 30 µM
OCCN(Cc1nc2c(OCC3CCCCC3)cccc2[nH]1)C1CCCCC1 | > 30 µM
OCCN(Cc1nc2c(OCC3CCCCC3)cccc2[nH]1)CC1CCCCC1 | 21 µM
OCCN(Cc1ccc(Cl)cc1)Cc1nc2c(OCC3CCCCC3)cccc2[nH]1 | 13 µM
COc1ccc(CN(CCO)Cc2nc3c(OCC4CCCCC4)cccc3[nH]2)cc1 | 19 µM
c1ccc(NCc2nc3c(OCC4CCCCC4)cccc3[nH]2)cc1 | > 30 µM
OCCCCNCc1nc2c(OCC3CCCCC3)cccc2[nH]1 | 30 µM
OCC(CC1CCCCC1)NCc1nc2c(OCC3CCCCC3)cccc2[nH]1 (configuration not stated) | 5 µM
OCCN(Cc1ccccc1)Cc1nc2c(OCC3CCCCC3)cccc2[nH]1 | 25 µM
COc1ccc(CNCc2nc3c(OCC4CCCCC4)cccc3[nH]2)cc1 | > 30 µM
OCC(NCc1nc2c(OCC3CCCCC3)cccc2[nH]1)c1ccccc1 (configuration not stated) | 20 µM
OCCCCCNCc1nc2c(OCC3CCCCC3)cccc2[nH]1 | > 30 µM
OCCC(NCc1nc2c(OCC3CCCCC3)cccc2[nH]1)c1ccccc1 (configuration not stated) | 22 µM
CN(CCO)Cc1nc2c(OCC3CCCCC3)cccc2[nH]1 | > 30 µM
OCCN(Cc1ccncc1)Cc1nc2c(OCC3CCCCC3)cccc2[nH]1 | > 30 µM
COc1ccc(NCc2nc3c(OCC4CCCCC4)cccc3[nH]2)cc1 | > 30 µM
CCCC1O[C@@H]2C[C@H]3[C@@H]4CCC5=CC(=O)C=C[C@]5(C)[C@H]4[C@@H](O)C[C@]3(C)[C@]2(C(=O)CO)O1 (some centres not stated) [BUDESONIDE] | 26.2 µM
O=c1c(-c2ccc(O[C@@H]3O[C@H](CO)[C@@H](O)[C@H](O)[C@H]3O)cc2)coc2cc(O)cc(O)c12 [Sophoricoside] | 10.6 µM
